The values below come from US5561131A, “Defaunation method” (Mallinckrodt Veterinary, Inc., priority 1991, dated 1996).

The nature of the assay: Growth and carcass measurements in lambs. In kind it is in vivo, lambs (sheep). The conditions noted are these: 332 mg/kg. The method, then:
Three cross-bred lambs were defaunated with compound 37 at dose rate of 332 mg per kg liveweight. The lambs were allowed four weeks to adapt to defaunation before commencing the trial. The lambs were grazed at pasture. Then control (faunated) cohorts of the defaunated group, which were matched for liveweight, were grazed in the same paddock, but separated from the defaunated lambs by a double-fence (4 meter separation). This was to prevent the faunated lambs contaminating the defaunated lambs.
At 16 weeks post-defaunation both groups of the lambs were sacrificed and measurements taken.
Also shown is the cross-sectional area of the longissimus dorsi (loin eye muscle) measured between the 12th and 13th rib.

In the case of `Clc1nc(Cl)nc(Nc2ccccc2Cl)n1` [Compound 37, 2,4-dichloro-6-(2-chloroanilino)-1,3,5-triazine], where the note is “vs control, p < 0.01”, the “ADG, response to defaun.” value stood at 72%; the “Carcass dressing out percentage, response to defaun.” value came to 16%; the “Loin eye muscle area, response to defaun.” value is given as 26%. Also, the “ADG (average daily gain)” value (defaunation) stood at 165 g/day. Moreover, the “Loin eye muscle area” value (defaunation, 16 weeks, between 12th and 13th rib) is 12.5 CM^2. Moreover, the “Carcass dressing out percentage” value (defaunation, 16 weeks, cold carcass weight as percentage of liveweight) worked out at 44.5%.
